The record followed here is patent US8158596B2, “Materials and methods for FOXP3 tumor suppression” (The Regents of the University of Michigan, priority 2007, dated 2012).

For series [1], the system named is ATF2. Nature of the series: Western blot of phospho-ATF2 in 4T1 cells. In kind it is cell-based, mouse. Particulars: for activation of ATF2: anisomycin 1 μg/ml, PMA 0.5 μg/ml. As to the method:
(§1) To identify the mechanism by which anisomycin induced FoxP3, the activation of ATF2, p38, and JNK upon treatment with either anisomycin or PMA was compared. 4T1 cells were treated with either vehicle control, anisomycin (1 μg/ml) or PMA (0.5 μg/ml). Western blots of the cell lysates were obtained using antibodies specific for phospho-ATF2, phospho-p38, ATF2, phospho-JNK1/2, phospho-c-Jun. Levels of beta-actin were used as loading controls.
(§2) Cells of a mammary tumor cell line were treated with anisomycin in conjunction with inhibitors of overlapping specificity. Specifically, 4T1 cells were treated with vehicle control, anisomycin (1 μg/ml) or PMA (0.5 μg/ml) in the presence or absence of inhibitors (2 μg/ml): SP10096 (SP), SB203580 (SB), and PD9786 (PD). Western blots of the cell lysates were obtained using antibodies specific for phosphor-ATF2, phospho-p38, ATF2, phospho-JNK1/2, phospho-c-Jun. Levels of beta-actin were used as loading controls.
(§3) In order to study the mechanism of ATF2/c-Jun-mediated induction of FoxP3, chromatin immunoprecipitation (ChIP) was carried out as described in (Im et al., Nat Med 5: 412-417 (1999)) to identify an anisomycin-inducible binding site of the FoxP3 locus. Briefly, 4TI cells were treated with vehicle or anisomycin for 2 hours. The cells were sonicated and the chromatin was fixed with 1% paraformaldehyde. Anti-phospho-c-Jun or anti-phosphor-ATF2 antibodies or control rabbit IgG were used to precipitate chromatin associated with these proteins. The amounts of the specific DNA fragments were quantitated by real-time PCR and normalized against the genomic DNA preparation from the same cells. […] Untreated 4T1 cells barely had detectable amounts of phospho-ATF2 and phospho-c-Jun in the nuclei.
In general terms: In western blotting, separated proteins are transferred to a membrane and probed.

Series [2] relates to FoxP3. Nature of the series: Anisomycin-induced FoxP3 induction in 4T1 cells with kinase inhibitors. In kind it is cell-based, mouse. Particulars: inhibitor 2 μg/ml with anisomycin 1 μg/ml.
The test system of series [3] is JNK. Nature of the series: Western blot of phospho-JNK1/2 in 4T1 cells. Particulars: for activation of JNK: anisomycin 1 μg/ml, PMA 0.5 μg/ml. In kind it is cell-based, mouse. The protocol:
as §1, §2

Series [4] relates to FOXP3. Nature of the series: FOXP3 silencing in HPEC: FOXP3 mRNA. In kind it is cell-based, human. The note with it: one week after infection. The protocol:
(§4) To determine whether the endogenous FOXP3 in prostate epithelial cell lines is responsible for MYC repression, the FOXP3 locus was silenced with a lentiviral vector encoding shRNA for FOXP3. Human Prostate Epithelial Cells (HPEC) were purchased from Lonza Group Ltd (Switzerland) and were cultured with medium. An early passage of the HPEC were infected with lentivirus expressing either control shRNA or FOXP3 shRNA vector as described in Zuo et al., 2007, supra. Uninfected cells were removed by drug selection. At one week after infection, the levels of FOXP3 or MYC mRNA were quantitated by RT-PCR. Western blotting was also carried out using anti-FOXP3 or -MYC antibodies. Beta actin was used as a loading control.

Series [5] has as its system MYC. Nature of the series: FOXP3 silencing in HPEC: MYC transcript. The note with it: one week after infection. In kind it is cell-based, human. The protocol: as §4
The subject of series [6] is FOXP3 gene. Nature of the series: FOXP3 gene induction in prostate cancer cell lines by methyltransferase inhibitor. In kind it is cell-based, human. Particulars: prostate cancer cell lines PC3 and Du145. The protocol:
Using a quantitative pyrosequencing method for FOXP3 analysis, the level of methylation in both the intronic CpG motif and the CpG island was quantitated in the promoter region of FOXP3, using DNA from 17 cases of micro-dissected normal and cancerous tissues. […] Morover, the increase in methylation strongly correlate with reduction of FOXP3 expression. To verify the significance of DNA methylation, prostate cancer cell lines PC3 and Du145 were treated with a methyltransferase inhibitor (5-aza-2′-deoxycytidine (5-AZA)).

For series [7], the system named is c-Jun. Nature of the series: Western blot of phospho-c-Jun in 4T1 cells. The note with it: for activation of c-Jun: anisomycin 1 μg/ml, PMA 0.5 μg/ml. In kind it is cell-based, mouse. The protocol: as §1, §2, §3
The target of series [8] is T1, p38 (Mus musculus, UniProt P47811).
T1 construct: Western blots of the cell lysates were obtained using antibodies specific for phospho-ATF2, phospho-p38; endogenous in cells; host or cells: 4T1 mouse mammary tumor cells
In kind it is cell-based. Particulars: 4T1 cells; anisomycin 1 μg/ml, PMA 0.5 μg/ml. As to the method:
4T1 cells were treated with either vehicle control, anisomycin (1 μg/ml) or PMA (0.5 μg/ml). Western blots of the cell lysates were obtained using antibodies specific for phospho-ATF2, phospho-p38, ATF2, phospho-JNK1/2, phospho-c-Jun. Levels of beta-actin were used as loading controls.
Cells of a mammary tumor cell line were treated with anisomycin in conjunction with inhibitors of overlapping specificity. […] Western blots of the cell lysates were obtained using antibodies specific for phosphor-ATF2, phospho-p38, ATF2, phospho-JNK1/2, phospho-c-Jun. Levels of beta-actin were used as loading controls.

For series [9], the system named is FOXP3-encoding mRNA. Nature of the series: Induction of FOXP3-encoding mRNA in cancer cell lines (RT-PCR). Particulars: thymoma BW5147, thymic epithelial cell 61.7, breast cancer TSA, treated 14 hr to 2 days. In kind it is cell-based. The protocol: A method was developed to induce FOXP3 expression in cancer cells by activating JNK, P38 and ATF2. Briefly, breast cancer and thymoma cell lines were treated with activators of JNK, P38 and ATF2, such a emetine and anisomycin for 14 hr to 2 days. The cells were analyzed for expression of FOXP3-encoding mRNA by RT-PCR.

Series [10] has as its system TSA cells. Nature of the series: Apoptosis: activated caspase 3 staining and DNA content. In kind it is cell-based, mouse. The text has this: Cells were stained for activated Capsase 3 and also tested for DNA contents. The % of gated cells was apoptotic based on their sub-2C DNA contents.
The test system of series [11] is FOXP3 transcripts. Nature of the series: FOXP3 transcripts in primary mammary epithelial cultures of ATF2+/+ and ATF2-/- mice. In kind it is cell-based, mouse. As to the method: ATF2± mice were obtained from the frozen embryo bank of the Jackson Laboratories and were crossed to produce ATF2+/+ and the ATF2−/− mice. […] Two independent primary cultures were obtained from two ATF2−/− females. Specifically, mouse mammary fat pads were removed from 6 to 8-week-old virgin female mice and minced into small pieces. After collagenase digestion at 37° C. in a shaking incubator in DMEM medium supplemented with 5% fetal calf serum (FBS), cells were sieved through a 70-μm cell strainer (BD Falcon) to obtain a single cell suspension. The cells were cultured in DMEM medium supplemented with 10% FBS and 10 ng/ml epithelial growth factor (EGF). At day 3 of culture, fibroblast cells were removed by a short digestion with 0.05% trypsin-EDTA as less adherent cells.
The primary cultures were then assayed for expressioin of FOXP3 protein by Western blotting cell lysates of the cultures with antibodies specific for FOXP3. The primary transcripts also were assayed for expression of FOXP3 by real-time PCR.

In series [12] the test system is breast cancer cell lines MCF-7, BT474, TSA. Nature of the series: Killing of breast cancer cell lines / MTT viability assay. In kind it is cell-based, human, mouse. As to the method: Given the impact of FOXP3 activity on tumor growth and cell death, these compounds were also tested for their ability to kill cancer cells. […] The IC50 ranges between 30-100 ng/ml.
To determine whether anisomycin treatment causes apoptosis of breast cancer cells, the cytotoxic effect of anisomycin on several of breast cancer cell lines was measured by MTT assay. 10^4 cells/well of mouse cell line (TSA) or human breast cancer cell lines (TB474 or MCF7) were cultured in the presence of 25, 50, 100, 200, 400, or 800 ng/ml anisomycin for 48 hours. The amounts of viable cells were determined by MTT assay, with viability of the untreated cells defined as 100%. Both mouse (TSA) and human breast cancer cell lines (BT474, MCF-7) were highly susceptible to anisomycin, with an IC50 between 50-100 […].

Series [13] has as its system TSA tumor cells. Nature of the series: TSA tumor in mammary fat pads of BALb/c mice. In kind it is in vivo. Particulars: intraperitoneal, every 3 days for 8 times, I mg/mouse. The protocol: To test whether induction of FoxP3 by ATF2-FoxP3 pathway can be explored for breast cancer therapy, cells (5×10^5) of the TSA cell line were injected into the mammary fat pads of BALb/c mice. Five days later, when the cancer cells established locally, the mice were intraperitoneally treated with vehicle control or anisomycin every 3 days for 8 times at a dose of I mg/mouse.

The test system of series [14] is FoxP3 locus P2 and P10 sites. Nature of the series: ChIP of phospho-ATF2/phospho-c-Jun binding at the FoxP3 locus in 4T1 cells. In kind it is cell-based, mouse. As to the method:
as §3
In order to identify the FoxP3 sequence associated with p-ATF2 and p-c-Jun, the 5′ sequence of the FoxP3 gene was analyzed and 14 potential AP1 and CREB sites were identified. […]

Series [15] concerns P10 probe (AP1 site of FoxP3 enhancer). Nature of the series: Electrophoretic mobility shift of P10 AP1 probe with 4T1 nuclear extracts. In kind it is cell-based, mouse. The note with it: nuclear extracts of anisomycin-treated 4T1 cells. An excerpt: Sequencing comparison identified a typical AP1 site within the P10. […] The sequence of nonmutated probe (P10) is […] (bold letters for core AP1 sequence; SEQ ID NO: 173), that for P10-Mt1 is […] (bold letter indicate mutations; SEQ ID NO: 174), while that for P10-Mt2 is […] (SEQ ID NO: 175).

Where [16] appears, read: inhibitor 2 μg/ml with anisomycin 1 μg/ml.

T1 sequence (P47811 whole entry): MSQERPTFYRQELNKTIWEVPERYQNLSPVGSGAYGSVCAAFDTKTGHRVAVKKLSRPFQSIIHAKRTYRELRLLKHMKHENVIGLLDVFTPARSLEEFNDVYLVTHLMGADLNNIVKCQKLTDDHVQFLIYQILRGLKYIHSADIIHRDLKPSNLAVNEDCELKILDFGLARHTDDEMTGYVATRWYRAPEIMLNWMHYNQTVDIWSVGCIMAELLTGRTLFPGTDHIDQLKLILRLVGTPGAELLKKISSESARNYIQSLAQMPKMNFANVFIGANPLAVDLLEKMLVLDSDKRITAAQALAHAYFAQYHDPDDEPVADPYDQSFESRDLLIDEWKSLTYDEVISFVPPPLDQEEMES

For the compound `C[S+]([O-])c1ccc(-c2nc(-c3ccncc3)c(-c3ccc(F)cc3)[nH]2)cc1` (stereo not shown) [SB], the “inhibition of ATF2 activation by anisomycin” value in series [1] (setting [16]) is listed as “only partially”. For the same compound, the “inhibition of anisomycin-induced FoxP3 induction” value in series [2] was “reduced, but did not eliminate”. Further, in [3] (setting [16]), the “inhibition of JNK activation by anisomycin” value is “only partially”.
Take “FoxP3 shRNA: lentiviral shRNA specific for FoxP3 used in mouse TSA cells (SEQ ID NO: 168) (AAGCCATGGCAATAGTTCCTT)”: the “expression of FOXP3 mRNA” value in [4] is on record as “major reduction”. Besides, the “level of MYC transcript” value in series [5] is “significantly elevated”.
For the compound `Nc1ncn([C@H]2C[C@H](O)[C@@H](CO)O2)c(=O)n1` [5-AZA, 5-aza-2′-deoxycytidine], the “induction of the FOXP3 gene” value in series [6] is on record as “two-fold”.
As for `CCCCCCCCCCCCCC(=O)O[C@@H]1[C@@H](C)[C@@]2(O)[C@@H](C=C(CO)C[C@]3(O)C(=O)C(C)=C[C@@H]23)[C@@H]2C(C)(C)[C@]12OC(C)=O` [PMA], the “activation of ATF2” value in series [1] is recorded as “activated”. Moreover, in [7], the “activation of c-Jun” value is on record as “failed to activate”. Also, the “activation of p38” value in series [8] was “activated”. For the same compound, the “activation of JNK” value in series [3] is recorded as “failed to activate”.
For `CC[C@H]1CN2CCc3cc(OC)c(OC)cc3[C@@H]2C[C@@H]1C[C@H]1NCCc2cc(OC)c(OC)cc21` [emetine], in series [9], the “induction of FOXP3-encoding mRNA” value is given as “strong induction”.
On to `COc1ccc(C[C@H]2NC[C@H](O)[C@H]2OC(C)=O)cc1` [anisomycin], for which the “activation of ATF2” value in series [1] is on record as “activated”. Moreover, in series [1] (anisomycin 2 hours), the “phospho-ATF2 in the nuclear fraction” value is “major increase”. In addition, in series [7], the “activation of c-Jun” value is recorded as “activation”. For the same compound, in series [7] (anisomycin 2 hours), the “phospho-c-Jun in the nuclear fraction” value is reported as “major increase”. Besides, in series [10], the “active caspase 3 in cells with less than 2C DNA contents” value is given as “increased expression of active caspase 3”. The “FOXP3 transcripts in ATF2+/+ epithelial cultures” value in series [11] (ATF2+/+ primary mammary epithelial cells) is “further induced”. The “FoxP3 transcripts in ATF2-/- cells” value in [11] (ATF2-/- primary mammary epithelial cells) is given as “completely refractory”. In series [12] (48 hours), the “IC50 (cancer cell killing)” value fell in the range of 0.03 to 0.1 µg/mL. In addition, the “killing of cancer cells” value in series [12] (within 48 hours) is “killed a substantial percentage of cancer cells”. For the same compound, the “activation of p38” value in series [8] is recorded as “activated”. Moreover, the “induction of FOXP3-encoding mRNA” value in series [9] is given as “strong induction”. Besides, the side effects result in series [13] is listed as “did not give obvious side effects”. Also, the “growth of TSA tumor cells in syngeneic mammary pad” value in [13] (from day 5) is on record as “nearly completely abrogated”. Besides, the “inducibility of ATF2/cJun association with P2 site (ChIP)” value in series [14] (P2, 4.8 kb 5′ of exon 1) is “not inducible”. Besides, the “enhancement of ATF2/cJun binding to P10 site (ChIP)” value in series [14] (P10, 4.2 kb 3′ of exon 1) is “more than 2 fold”. For the same compound, in series [15], the “binding of nuclear extracts to nonmutated P10 probe (EMSA)” value was “strong interaction”. For the same compound, the “activation of JNK” value in series [3] is given as “activation”.
